24 compounds from US20260001886A1, “ENPP1 INHIBITORS I” (RE Ventures I, LLC, priority 2024, published 2026) can be followed below.

Data set [1] addresses T1, human CA-II (CA2) (Homo sapiens (Human), UniProt P00918). Briefly: biochemical.
Procedure: (§1) Cytiva Biacore S200, T200 and 3000 machines were used for all SPR experiments. […] For carbonic anhydrases, data were collected at a constant temperature of 25° C. Human CA-I (CA1) or human CA-II (CA2) was captured via standard EDC/NHS protocol on a Biacore CM5 chip using standard protocols in HBS-N buffer (10 mM HEPES (pH 7.4), 150 mM NaCl) at ˜2000 RU. The experiments were run in PBS buffer containing 0.05% Tween 20 and 3% DMSO. All compounds were initially screened at concentrations ranging from 23 nM to 50 µM or 4.6 nM to 10 µM, injecting from the lowest to highest concentrations and adjusting appropriately for each compound for repeat experiments. Scrubber 2 (Biologic software) was used to process and analyse SPR data. […] Data for the inhibitors were referenced to those for a blank surface and blank injections to normalise for non-specific binding and drift. A DMSO calibration was run to remove excluded volume effect of binding responses between reference and target surface.
In data set [2] the target is T2, human CA-I (CA1) (Homo sapiens (Human), UniProt P00915). Briefly: biochemical.
Procedure: as §1
Data set [3] addresses T3, Human ENPP1 (Homo sapiens (Human), UniProt P22413). In words: biochemical.
Procedure: (§2) ENPP1 catalyses the hydrolysis of ATP into AMP+PPi. AMP production was monitored using Bellbrooks Transcreener AMP/GMP TR-FRET assay kit (Cat No. 3020-10K) according to the manufacturer's instructions. The assay was run with 50 mM Tris pH 7.5, 5 mM MgCl2, 150 mM NaCl, 0.005% Tween20 and distilled H2O. Antibody and tracer were diluted to 2 nM. […] Mouse ENPP1 was run at 15 pM with ATP at 400 nM. AMP produced in the assay by ENPP1 activity competes with a far-red tracer labelled AMP bound to an AMP specific antibody resulting in a decrease in TR-FRET. ENPP1 inhibition reduces AMP production and increases the TR-FRET signal.
Data set [4] deals with ENPP1 expressed by MCF-7 cells (Homo sapiens (Human), UniProt P22413). Briefly: cell-based.
Procedure: ENPP1 inhibition was assessed in a human cellular co-culture assay using THP1-Dual interferon reporter cells from InvivoGen (Cat No. thpd-nfis), see Goswami et al., 2022, and MCF-7 cancer cells.
MCF-7 cells were seeded at 10,000 cells/well in a 96 well plate and 24 h later compounds were added in DMEM+GlutaMAX media+2% Hyclone FBS, with a final DMSO of 0.2%. 2′3′-cGAMP was added at a final concentration of 10 μM and incubated for 30 mins at 37° C. 20,000 THP-1 cells were added per well and incubated for 48 h. IFN response was measured by Quanti-Luc Gold according to the manufacturer's instructions using 15 μL Quanti-Luc Gold per well. Luminescence was measured on an EnSight reader (PerkinElmer).
Data set [5] deals with T3, Human ENPP1.
Procedure: as §2
The test system of another data set is Alpl^Prx1 mouse. Briefly: In vivo Model 1: Alpl^Prx1 mouse model of hypophosphatasia (HPP).
Data set [6] has as its target T1, human CA-II (CA2). In words: Surface plasmon resonance, carbonic anhydrase II. Particulars: 25° C., CM5 chip. A general note: In SPR one partner is held on a chip, and binding of the other changes the refractive index at the surface.
Procedure: as §1
For data set [7], the target named is T2, human CA-I (CA1). In words: Surface plasmon resonance, carbonic anhydrase I. The following applies: 25° C., CM5 chip.
Procedure: as §1
[8] abbreviates: oral in diet, after 100 days of dosing.

Each structure is given as a SMILES string. Read-outs that look alike come from different tables or passages of the source.

T3 sequence (P22413 whole entry): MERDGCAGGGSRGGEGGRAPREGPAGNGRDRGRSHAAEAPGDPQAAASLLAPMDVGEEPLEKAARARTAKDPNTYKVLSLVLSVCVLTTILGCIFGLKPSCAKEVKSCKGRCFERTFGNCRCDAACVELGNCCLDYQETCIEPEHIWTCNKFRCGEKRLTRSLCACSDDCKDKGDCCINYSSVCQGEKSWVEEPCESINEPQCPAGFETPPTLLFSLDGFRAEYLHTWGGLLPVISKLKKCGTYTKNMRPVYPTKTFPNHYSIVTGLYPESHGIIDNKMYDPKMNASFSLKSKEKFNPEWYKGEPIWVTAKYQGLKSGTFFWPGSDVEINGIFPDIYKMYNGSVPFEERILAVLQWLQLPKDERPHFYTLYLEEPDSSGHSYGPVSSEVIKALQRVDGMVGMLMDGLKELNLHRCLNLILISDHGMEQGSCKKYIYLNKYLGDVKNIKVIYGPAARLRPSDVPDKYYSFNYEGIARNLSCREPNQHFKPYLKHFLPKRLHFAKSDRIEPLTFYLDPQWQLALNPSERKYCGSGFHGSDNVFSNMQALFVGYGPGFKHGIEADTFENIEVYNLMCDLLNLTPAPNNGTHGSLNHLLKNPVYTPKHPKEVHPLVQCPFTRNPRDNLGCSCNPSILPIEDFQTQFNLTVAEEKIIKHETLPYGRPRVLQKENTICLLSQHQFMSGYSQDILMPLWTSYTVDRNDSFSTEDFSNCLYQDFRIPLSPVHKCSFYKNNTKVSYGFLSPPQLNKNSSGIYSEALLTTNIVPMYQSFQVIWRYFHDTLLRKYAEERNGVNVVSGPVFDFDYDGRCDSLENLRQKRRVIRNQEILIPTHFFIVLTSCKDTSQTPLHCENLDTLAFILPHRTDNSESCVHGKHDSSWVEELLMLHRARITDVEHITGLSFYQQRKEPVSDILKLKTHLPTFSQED
Sequence of ENPP1 expressed by MCF-7 cells (P22413 whole entry): as above
T2 sequence (P00915 whole entry): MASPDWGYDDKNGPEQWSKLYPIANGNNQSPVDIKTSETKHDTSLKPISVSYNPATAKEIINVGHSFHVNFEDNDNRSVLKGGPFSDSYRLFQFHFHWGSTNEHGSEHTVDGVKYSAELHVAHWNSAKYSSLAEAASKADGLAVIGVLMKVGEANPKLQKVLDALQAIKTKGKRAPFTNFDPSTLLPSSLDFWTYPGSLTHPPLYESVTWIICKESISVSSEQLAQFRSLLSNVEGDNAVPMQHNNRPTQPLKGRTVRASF
Procedure for Alpl^Prx1 mouse: Bone tissues were fixed in 4% PFA.
PPi levels were measured using a standard method involving ATPsulfurylase. […] ATP converted from PPi in the samples was mixed with BacTiter-Glo (Promega) and luminescence was quantified in duplicated reactions using a iD3X plate reader (Molecular Device). Values obtained from reactions without ATPsulfurylase were subtracted to eliminate ATP which possibly existed in the plasma samples.
Plasma chemistry was performed using Vetscan VS2 analyzer with Comprehensive Diagnostic Profiles rotor (Abaxis). […] Mouse OPN was measured with Quantikine®-ELISA kit (R&D).
Radiographic images were obtained by using XPERT 80-Kubtec Scientific.
Three stained sections per mouse were analyzed by Keyence microscope to obtain an average value of mineralized area. Five mice per genotype were used (n=5).

A word on the Kd: it is a measure of binding affinity in units of concentration. High values mean lower affinity, low ones higher affinity. Turning to `Cc1cc2n(Cc3ccc(S(C)(=N)=O)cc3)cc(C(C)C)c(=O)n2n1` (racemic) [9 Rac], the Kd on human CA-II (CA2) [1] and on human CA-I (CA1) [2] was > 100000 µM each time.
For `CCc1nc2n(Cc3ccc(S(C)(=N)=O)cc3)cc(C(C)C)c(=O)n2n1` (racemic) [31 Rac], the Kd at human CA-II (CA2) [1] and on human CA-I (CA1) [2] was > 100000 µM throughout.
As a reminder, the EC50 is the midpoint of the concentration-response curve. A lower EC50 goes with a more potent agent. For `CC(C)c1cn(Cc2ccc(S(C)(=N)=O)cc2)c2nc(CC(F)(F)F)nn2c1=O` (racemic) [32 Rac], on Human ENPP1 [3], it took 0.00794 µM to reach a half-maximal effect (EC50). For the same compound, the Kd at human CA-II (CA2) [1] and on human CA-I (CA1) [2] was > 100000 µM each time.
The compound `CCS(=N)(=O)c1ccc(Cn2cc(C(C)C)c(=O)n3nc(C4CC4)nc23)cc1` (racemic) [56 Rac] had an EC50 on Human ENPP1 [3] of 0.00251 µM. On human CA-II (CA2) [1], this compound showed a Kd of 31.6 µM.
On Human ENPP1 [3], `Cc1cc(Cn2cc(C(C)C)c(=O)n3nc(C4CC4)cc23)ccc1S(C)(=N)=O` (racemic) [58 Rac] showed an EC50 of 0.002 µM. Also, the Kd on human CA-I (CA1) [2] was > 100000 µM.
For `CC(C)c1cn(C[C@H]2C[C@H]3C[C@@H]2CN3S(N)(=O)=O)c2nc(C(F)(F)F)nn2c1=O` (racemic) [Compound 36, rac-(1R,4R,5R)-5-((6-isopropyl-7-oxo-2-(trifluoromethyl)-[1,2,4]triazolo[1,5-a]pyrimidin-4(7H)-yl)methyl)-2-azabicyclo[2.2.1]heptane-2-sulfonamide], the dissociation constant (Kd) at human CA-I (CA1) [2] is > 100000 µM.
On to `CC(C)c1cn(Cc2ccc([S@@](C)(=N)=O)cc2)c2cc(C3CC3)nn2c1=O` (single isomer, unassigned) [Compound 3B], for which the Kd at human CA-II (CA2) [1] is > 100000 µM.
For `Cc1cc2n(Cc3ccc(S(C)(=N)=O)cc3)cc(C(C)C)c(=O)n2n1` (single isomer, unassigned) [Compound 9A], the Kd at human CA-II (CA2) [1] and at human CA-I (CA1) [2] was > 100000 µM throughout.
Regarding `CCc1nc2n(Cc3ccc([S@@](C)(=N)=O)cc3)cc(C(C)C)c(=O)n2n1` (single isomer, unassigned) [Compound 31A], the Kd at human CA-II (CA2) [1] and at human CA-I (CA1) [2] was > 100000 µM throughout.
Regarding `CCc1nc2n(Cc3ccc([S@](C)(=N)=O)cc3)cc(C(C)C)c(=O)n2n1` (single isomer, unassigned) [Compound 31B], the Kd on human CA-II (CA2) [1] and on human CA-I (CA1) [2] was > 100000 µM each time.
Consider `CC(C)c1cn(Cc2ccc(S(C)(=N)=O)cc2)c2nc(CC(F)(F)F)nn2c1=O` (single isomer, unassigned) [Compound 32A], for which the EC50 on Human ENPP1 [3] is 0.00631 µM; in data set [4], 0.0794 µM. The Kd on human CA-II (CA2) [1] and on human CA-I (CA1) [2] was > 100000 µM each time.
As to `CC(C)c1cn(Cc2ccc([S@@](C)(=N)=O)cc2)c2nc(CC(F)(F)F)nn2c1=O` (single isomer, unassigned) [Compound 32B], the Kd on human CA-II (CA2) [1] and on human CA-I (CA1) [2] was > 100000 µM each time.
Consider `CC(C)c1cn(Cc2ccc([S@@](=N)(=O)C3CC3)cc2)c2nc(C3CC3)nn2c1=O` (single isomer, unassigned) [Compound 55], for which the EC50 in data set [4] is 0.0251 µM; on Human ENPP1 [5], 0.000316 µM.
As to `CC[S@](=N)(=O)c1ccc(Cn2cc(C(C)C)c(=O)n3nc(C4CC4)nc23)cc1` (single isomer, unassigned) [Compound 56A], the EC50 in data set [4] is 0.0398 µM; at Human ENPP1 [5], 0.001 µM.
On the same counts, the results for `Cc1cc(Cn2cc(C(C)C)c(=O)n3nc(C4CC4)cc23)ccc1[S@@](C)(=N)=O` (single isomer, unassigned) [Compound 58A] are 0.2 µM and 0.00126 µM.
As for `Cc1cc(Cn2cc(C(C)C)c(=O)n3nc(C4CC4)nc23)ccc1[S@](C)(=N)=O` (single isomer, unassigned) [Compound 65], the figures for the EC50 (in data set [4]; on Human ENPP1 [5]) were 0.0398 µM and 0.00158 µM, respectively.
On the same counts, the results for `CC(C)c1cn(Cc2ccc([S@](C)(=N)=O)c(F)c2)c2cc(C3CC3)nn2c1=O` (single isomer, unassigned) [Compound 72] are 0.2 µM and 0.00251 µM.
On to `CC(C)c1cn(Cc2ccc(S(N)(=O)=O)cc2)c2nc(C3CC3)nn2c1=O` [Compound 11, 4-((2-cyclopropyl-6-isopropyl-7-oxo-[1,2,4]triazolo[1,5-a]pyrimidin-4(7H)-yl)methyl)benzenesulfonamide], for which the “Bone mineralization of the bone cortex (X-ray, tibia / knee joints)” value with Alpl^Prx1 mouse (male and female mice, oral in diet, 100 days) is “increased bone mineralization”. Moreover, in the data set with Alpl^Prx1 mouse (male mice, WT, control and treated), the “Plasma chemistry (significant changes; transaminase, amylase, BUN, Ca)” value is “only observed between WT and HPP mice”. Besides, in the data set on Alpl^Prx1 mouse (oral in diet, 100 days), the “Mineralization of L3 vertebrate bone (bone morphometry, Von Kossa)” value was “increased to the levels of wild-type mice” and the “Mineralization of trabecular bones of the distal femur (bone morphometry, Von Kossa)” value is reported as “slight improvement in mineralization”. In the data set with Alpl^Prx1 mouse (setting [8]), the “Plasma AP levels” value is “did not affect”, the “Plasma OPN levels” value is recorded as “did not affect” and the “Plasma PPi levels” value is “reduced to the levels of WT mice”.
`CC(C)c1cn(Cc2ccc(S(N)(=O)=O)c(-c3ccccc3)n2)c2nc(C3CC3)nn2c1=O` [Compound 27, 6-((2-cyclopropyl-6-isopropyl-7-oxo-[1,2,4]triazolo[1,5-a]pyrimidin-4(7H)-yl)methyl)-2-phenylpyridine-3-sulfonamide]: at human CA-II (CA2) [6], the “CA2 human SPR pKD” value is 3.0. Also, the figures for the EC50 (in data set [4]; at Human ENPP1 [5]) were 0.251 µM and 0.00631 µM, respectively. The “CA1 human SPR pKD” value at human CA-I (CA1) [7] turned out to be 3.0.
In the case of `CNc1nc(S(N)(=O)=O)ccc1Cn1cc(C(C)C)c(=O)n2nc(C3CC3)nc12` [Compound 29, 5-((2-cyclopropyl-6-isopropyl-7-oxo-[1,2,4]triazolo[1,5-a]pyrimidin-4(7H)-yl)methyl)-6-(methylamino)pyridine-2-sulfonamide], the Kd on human CA-II (CA2) [1] is 31.6 µM.
For `CC(C)c1nc2n(Cc3ccc(S(C)(=N)=O)cc3)cc(C(C)C)c(=O)n2n1` (centres unmarked) [Compound 30, 2,6-diisopropyl-4-(4-(S-methylsulfonimidoyl)benzyl)-[1,2,4]triazolo[1,5-a]pyrimidin-7(4H)-one], the “CA2 human SPR pKD” value at human CA-II (CA2) [6] was <1. Further, the results for the EC50 (in data set [4]; at Human ENPP1 [5]) were 0.0794 µM and 0.00398 µM, respectively. Besides, the “CA1 human SPR pKD” value on human CA-I (CA1) [7] is on record as <1.
On to `CC(C)c1cn(C[C@@H]2C[C@@H]3C[C@H]2CN3S(N)(=O)=O)c2ncnn2c1=O` [Compound 37, (1R,4R,5R)-5-((6-isopropyl-7-oxo-[1,2,4]triazolo[1,5-a]pyrimidin-4(7H)-yl)methyl)-2-azabicyclo[2.2.1]heptane-2-sulfonamide], for which the Kd at human CA-I (CA1) [2] was > 100000 µM.
As to `CC(C)c1cn(Cc2ccc(S(=N)(=O)C3CC3)cc2)c2nc(C3CC3)nn2c1=O` (centres unmarked) [Compound 54, 4-(4-(Cyclopropanesulfonimidoyl)benzyl)-2-cyclopropyl-6-isopropyl-[1,2,4]triazolo[1,5-a]pyrimidin-7(4H)-one], the values for the EC50 (in data set [4]; on Human ENPP1 [5]) were 0.0398 µM and 0.00126 µM, respectively.
Regarding `Cc1cc(Cn2cc(C(C)C)c(=O)n3nc(C4CC4)nc23)ccc1S(C)(=N)=O` (centres unmarked) [Compound 71, 2-Cyclopropyl-6-isopropyl-4-(3-methyl-4-(S-methylsulfonimidoyl)benzyl)-[1,2,4]triazolo[1,5-a]pyrimidin-7(4H)-one], the EC50 in data set [4] was 0.251 µM; on Human ENPP1 [5] it was 0.00316 µM.
